Measurements from patent US4209443A, “Process for separating pharmaceutically active diindole alkaloids” (priority 1976, dated 1980).
Counter-ions that a name gives are not always drawn.

What was measured:
[1] = Neurotoxicity accompanied with paralytic symptoms; type: in vivo; conditions: during administration
[2] = tested on: L 1210/Ref (vinca-refractory) mouse lymphoid leukemia; assay: Average survival prolongation and tumor-inhibiting effect, L 1210/Ref (vinca-refractory) lymphoid leukemia, i.p.; type: in vivo, mouse (BDF1 mice); conditions: 7 treatments; for Average survival period, treated: control 8.0 days
Experimental: (§1) The pharmacological tests were performed on transplantable tumors of rats and mice. The effects on L 1210/VS(vinca-sensitive) mouse lymphoid leukemia and L 1210/Ref (vinca-refractory) mouse lymphoid leukemia were tested on BDF1 mice, the effects on Ehrlich ascites carcinomatous tumors and S 37 ascites sarcomatous tumors were examined on Swiss mice, whereas the effects on Novikoff hepatoma were examined on Wistar rats.
(§2) The 4-deacetoxy-vinblastine sulfate was dissolved in physiological saline and the solution was administered intraperitoneally into the animals to be tested. In the tests the average prolongation of survival period and the tumor-inhibiting effect were examined in relation to the untreated controls. In the Table the symbol T/c represents the ratio of treated animals to the controls, and the term "number of limit-days" means the fourfold of the average survival period observed in the control group.

[3] = tested on: L 1210/VS (vinca-sensitive) mouse lymphoid leukemia; assay: Average survival prolongation and tumor-inhibiting effect, L 1210/VS (vinca-sensitive) lymphoid leukemia, i.p.; type: in vivo, mouse (BDF1 mice)
Experimental: as §1, §2

Novikoff hepatoma = assay: Average survival prolongation and tumor-inhibiting effect, Novikoff hepatoma, i.p.; type: in vivo, rat (Wistar rats); conditions: once a day, 8 treatments
Experimental: as §1, §2

[4] = tested on: transplantable tumors of rats and mice; assay: Tumor-inhibiting effect on transplantable tumors of rats and mice; type: in vivo; conditions: compared with vinblastine
Experimental: as §1, §2

S 37 ascites sarcoma = assay: Average survival prolongation and tumor-inhibiting effect, S 37 ascites sarcoma, i.p.; type: in vivo, mouse (Swiss mice); conditions: once a day, 8 treatments; for Average survival period, treated: control 18.2 days
Experimental: as §1, §2

[5] = tested on: Ehrlich ascites carcinoma; assay: Average survival prolongation and tumor-inhibiting effect, Ehrlich ascites carcinoma, i.p.; type: in vivo, mouse (Swiss mice); conditions: 3.0 mg/kg i.p., once a day, 9 treatments
Experimental: as §1, §2

HK/Ly ascites lymphoma = assay: Average survival prolongation and tumor-inhibiting effect, HK/Ly ascites lymphoma, i.p.; type: in vivo; conditions: once a day, 8 treatments; for Average survival period, treated: control 14.4 days
Experimental: as §2

mice = assay: Toxicity (LD50, i.p., mice)
[6] = tested on: tumors resistant towards the cytostatic agents known before; conditions: Hungarian Patent specification No. 165,986; cited from earlier work
[7] = known vinca alkaloids; cited from earlier work
[8] = Toxicity (LD50, i.p., mice); conditions: mouse, in vivo, ip
[9] = 4.0 mg/kg i.p., once in every two days
[10] = 0.9 mg/kg i.p., once a day, 7 treatments
[11] = 1.8 mg/kg i.p., once a day, 7 treatments
[12] = 2.0 mg/kg i.p., once a day, 16 treatments
[13] = 4.0 mg/kg i.p., once a day, 16 treatments
[14] = 4.0 mg/kg i.p., once in every two days, 8 treatments
[15] = 4.0 mg/kg i.p., once in every two days, 11 treatments
[16] = 5.0 mg/kg i.p., once in every two days, 8 treatments
[17] = 6.0 mg/kg i.p., once in every two days, 8 treatments

CC[C@]1(O)C[C@@H]2CN(CCc3c([nH]c4ccccc34)[C@@](C(=O)OC)(c3cc4c(cc3OC)N(C)[C@@H]3[C@]45CCN4CC=C[C@@](CC)(C[C@]3(O)C(=O)OC)[C@H]45)C2)C1 [4-deacetoxy-vinblastine sulfate, 4-Deacetoxy-vinblastine sulfate]
Neurotoxicity accompanied with paralytic symptoms [1]: does not appear at all | On the limit-day (days 36 to day 40): lives ([2]; 2.0 mg/kg i.p., once a day): 0/6 | On the limit-day (days 36 to day 40): tumor-free ([2]; 2.0 mg/kg i.p., once a day): 0/6 | T/c × 100 ([2]; 2.0 mg/kg i.p., once a day): 119 | Average survival period, treated ([2]; 2.0 mg/kg i.p., once a day): 9.5 days | On the limit-day (days 36 to day 40): lives ([2]; 4.0 mg/kg i.p., once a day): 0/6 | On the limit-day (days 36 to day 40): tumor-free ([2]; 4.0 mg/kg i.p., once a day): 0/6 | T/c × 100 ([2]; 4.0 mg/kg i.p., once a day): 144 | Average survival period, treated ([2]; 4.0 mg/kg i.p., once a day): 11.5 days | On the limit-day (days 36 to day 40): lives [2, 9]: 0/6 | On the limit-day (days 36 to day 40): tumor-free [2, 9]: 0/6 | T/c × 100 [2, 9]: 146 | Average survival period, treated [2, 9]: 11.7 days | On the limit-day (days 36 to day 40): lives [3, 10]: 0/6 | On the limit-day (days 36 to day 40): tumor-free [3, 10]: 0/6 | T/c × 100 [3, 10]: 128 | Average survival period, treated ([3]; 0.9 mg/kg i.p., once a day, 7 treatments, control 8.8 days): 11.5 days | On the limit-day (days 36 to day 40): lives [3, 11]: 0/6 | On the limit-day (days 36 to day 40): tumor-free [3, 11]: 0/6 | T/c × 100 [3, 11]: 128 | Average survival period, treated ([3]; 1.8 mg/kg i.p., once a day, 7 treatments, control 8.8 days): 11.3 days | On the limit-day (days 36 to day 40): lives [3, 12]: 0/6 | On the limit-day (days 36 to day 40): tumor-free [3, 12]: 0/6 | T/c × 100 [3, 12]: 238 | Average survival period, treated ([3]; 2.0 mg/kg i.p., once a day, 16 treatments, control 10.3 days): 24.5 days | On the limit-day (days 36 to day 40): lives [3, 13]: 0/6 | On the limit-day (days 36 to day 40): tumor-free [3, 13]: 0/6 | T/c × 100 [3, 13]: 269 | Average survival period, treated ([3]; 4.0 mg/kg i.p., once a day, 16 treatments, control 10.3 days): 27.7 days | On the limit-day (days 36 to day 40): lives [3, 14]: 0/6 | On the limit-day (days 36 to day 40): tumor-free [3, 14]: 0/6 | T/c × 100 [3, 14]: 213 | Average survival period, treated ([3]; 4.0 mg/kg i.p., once in every two days, 8 treatments, control 8.3 days): 17.7 days | On the limit-day (days 36 to day 40): lives [3, 15]: 0/6 | On the limit-day (days 36 to day 40): tumor-free [3, 15]: 0/6 | T/c × 100 [3, 15]: 267 | Average survival period, treated ([3]; 4.0 mg/kg i.p., once in every two days, 11 treatments, control 10.3 days): 27.5 days | On the limit-day (days 36 to day 40): lives [3, 16]: 0/6 | On the limit-day (days 36 to day 40): tumor-free [3, 16]: 0/6 | T/c × 100 [3, 16]: 251 | Average survival period, treated ([3]; 5.0 mg/kg i.p., once in every two days, 8 treatments, control 8.3 days): 20.8 days | On the limit-day (days 36 to day 40): lives [3, 17]: 0/6 | On the limit-day (days 36 to day 40): tumor-free [3, 17]: 0/6 | T/c × 100 [3, 17]: 291 | Average survival period, treated ([3]; 6.0 mg/kg i.p., once in every two days, 8 treatments, control 8.3 days): 24.2 days | On the limit-day (days 36 to day 40): lives (Novikoff hepatoma; 0.5 mg/kg i.p.): 0/6 | On the limit-day (days 36 to day 40): tumor-free (Novikoff hepatoma; 0.5 mg/kg i.p.): 0/6 | T/c × 100 (Novikoff hepatoma; 0.5 mg/kg i.p.): 126 | Average survival period, treated (Novikoff hepatoma; 0.5 mg/kg i.p., control 8.2 days): 10.3 days | On the limit-day (days 36 to day 40): lives (Novikoff hepatoma; 1.0 mg/kg i.p.): 1/6 | On the limit-day (days 36 to day 40): tumor-free (Novikoff hepatoma; 1.0 mg/kg i.p.): 1/6 | T/c × 100 (Novikoff hepatoma; 1.0 mg/kg i.p.): 338 | Average survival period, treated (Novikoff hepatoma; 1.0 mg/kg i.p., control 8.2 days): 27.7 days | On the limit-day (days 36 to day 40): lives (Novikoff hepatoma; 1.5 mg/kg i.p.): 2/6 | On the limit-day (days 36 to day 40): tumor-free (Novikoff hepatoma; 1.5 mg/kg i.p.): 0/6 | T/c × 100 (Novikoff hepatoma; 1.5 mg/kg i.p.): 317 | Average survival period, treated (Novikoff hepatoma; 1.5 mg/kg i.p., control 7.8 days): 24.7 days | tumor-inhibiting effects compared with vinblastine [4]: roughly identical with those of vinblastine | On the limit-day (days 36 to day 40): lives (S 37 ascites sarcoma; 1.8 mg/kg i.p.): 6/8 | On the limit-day (days 36 to day 40): tumor-free (S 37 ascites sarcoma; 1.8 mg/kg i.p.): 6/8 | T/c × 100 (S 37 ascites sarcoma; 1.8 mg/kg i.p.): 376 | Average survival period, treated (S 37 ascites sarcoma; 1.8 mg/kg i.p.): 68.5 days | On the limit-day (days 36 to day 40): lives (S 37 ascites sarcoma; 2.7 mg/kg i.p.): 7/10 | On the limit-day (days 36 to day 40): tumor-free (S 37 ascites sarcoma; 2.7 mg/kg i.p.): 7/10 | T/c × 100 (S 37 ascites sarcoma; 2.7 mg/kg i.p.): 373 | Average survival period, treated (S 37 ascites sarcoma; 2.7 mg/kg i.p.): 67.9 days | On the limit-day (days 36 to day 40): lives [5]: 10/10 | On the limit-day (days 36 to day 40): tumor-free [5]: 6/10 | T/c × 100 [5]: 174 | Average survival period, treated ([5]; control 17.4 days): 30 days | On the limit-day (days 36 to day 40): lives (HK/Ly ascites lymphoma; 2.0 mg/kg i.p.): 0/10 | On the limit-day (days 36 to day 40): tumor-free (HK/Ly ascites lymphoma; 2.0 mg/kg i.p.): 0/10 | T/c × 100 (HK/Ly ascites lymphoma; 2.0 mg/kg i.p.): 334 | Average survival period, treated (HK/Ly ascites lymphoma; 2.0 mg/kg i.p.): 48.1 days | On the limit-day (days 36 to day 40): lives (HK/Ly ascites lymphoma; 4.0 mg/kg i.p.): 6/10 | On the limit-day (days 36 to day 40): tumor-free (HK/Ly ascites lymphoma; 4.0 mg/kg i.p.): 0/10 | T/c × 100 (HK/Ly ascites lymphoma; 4.0 mg/kg i.p.): 382 | Average survival period, treated (HK/Ly ascites lymphoma; 4.0 mg/kg i.p.): 55.0 days | On the limit-day (days 36 to day 40): lives (HK/Ly ascites lymphoma; 6.0 mg/kg i.p.): 0/10 | On the limit-day (days 36 to day 40): tumor-free (HK/Ly ascites lymphoma; 6.0 mg/kg i.p.): 0/10 | T/c × 100 (HK/Ly ascites lymphoma; 6.0 mg/kg i.p.): 328 | Average survival period, treated (HK/Ly ascites lymphoma; 6.0 mg/kg i.p.): 47.2 days | toxicity compared with vinblastine (mice; compared with vinblastine): far less toxic than vinblastine

CC[C@]12CN3CCc4c([nH]c5ccccc45)[C@@](C(=O)OC)(c4cc5c(cc4OC)N(C=O)[C@H]4[C@@](O)(C(=O)OC)[C@H](OC(C)=O)[C@]6(CC)C=CCN7CC[C@]54[C@@H]76)C[C@@H](C3)[C@H]1O2 [N-Formyl-leurosine, reference compound]
growth inhibition of tumors resistant towards the cytostatic agents known before [6]: inhibits the growth of tumors resistant towards the cytostatic agents known before | LD50 (mice; i.p., mice): 29.0 mg/kg

CC[C@]1(O)C[C@H]2CN(CCc3c([nH]c4ccccc34)[C@@](C(=O)OC)(c3cc4c(cc3OC)N(C=O)[C@H]3[C@@](O)(C(=O)OC)[C@H](OC(C)=O)[C@]5(CC)C=CCN6CC[C@]43[C@@H]65)C2)C1 [Vincristine, vincristine, reference compound]
Neurotoxicity accompanied with paralytic symptoms (known side-effect) [7]: characteristic adverse side-effect | LD50 [8]: 4.2 mg/kg
